Like-named read-outs stand apart in the source and are kept apart here.
Assays:
EbolaΔVP30-GFP virus = experiment: microbe, parasite or virus in culture; assay type: cell-based, Zaire ebolavirus; details: for % GFP inhibition: 5 µM; for IC50: read-out: IC50; for inhibition at 5 µM: Zaire ebolavirus, read-out: % GFP inhibition

Compound	% cell viability (VeroVP30 cells) [%]	% GFP inhibition (EbolaΔVP30-GFP virus) [%]	further results
1-Deacetoxy-1-oxo-3,7-dideacetylkhivorin	94	19	–
3beta-Hydroxydeoxydesacetoxy-7-oxogedunin	81	75	–
6-Hydroxyangolensic acid methyl ester	94	15	–
7-Deacetoxy-3-deacetyl-7-oxokhivorin	80	92	CC50 (VeroVP30 cells): > 10000 nM; IC50 (EbolaΔVP30-GFP virus): 560 nM
7-Deacetyldihydrogedunin	85	−30	–
11alpha-Acetoxykhivorin	93	−47	–
CC1(C)C(=O)[C@@H]2O[C@@H]2[C@@]2(C)C1C[C@@H](O)[C@]1(C)C2CC[C@@]2(C)[C@H](c3ccoc3)OC(=O)C3OC321 (stereo partly drawn) [1,2alpha-Epoxydeacetoxydihydrogedunin]	77	75	–
CC1(C)C2CC(=O)[C@]3(C)C(CC[C@@]4(C)[C@H](c5ccoc5)OC(=O)C5OC543)[C@@]2(C)[C@@H](O)C[C@H]1O (stereo partly shown) [1,3-Dideacetyl-7-deacetoxy-7-oxokhivorin]	78	100	CC50 (VeroVP30 cells): > 10000 nM; IC50 (EbolaΔVP30-GFP virus): < 150 nM
CC(=O)O[C@@H]1C[C@H]2C(C)(C)[C@H](O)C[C@H](O)[C@]2(C)[C@H]2CC[C@@]3(C)[C@H](c4ccoc4)OC(=O)[C@H]4O[C@]43[C@@]21C [1,3-Dideacetylkhivorin]	78	82	–
CC1(C)C2CC(=O)[C@]3(C)C(CC[C@@]4(C)[C@H](c5ccoc5)OC(=O)[C@H]5O[C@]543)[C@@]2(C)C(=O)C[C@H]1O (stereo partly shown) [1,7-Dideacetoxy-1,7-dioxo-3-deacetylkhivorin]	87	14	–
CC(=O)O[C@@H]1CC(=O)[C@@]2(C)C(CC(=O)[C@]3(C)C2CC[C@@]2(C)[C@H](c4ccoc4)OC(=O)C4OC423)C1(C)C (stereo partly shown) [1,7-Dideacetoxy-1,7-dioxokhivorin]	88	39	–
CC(=O)O[C@@H]1C[C@H]2C(C)(C)CCC(=O)[C@]2(C)[C@H]2CC[C@@]3(C)[C@H](c4ccoc4)OC(=O)[C@H]4O[C@]43[C@@]21C [2,3-Dihydroisogedunin]	91	−17	–
CC(=O)O[C@H]1C[C@@H](O)C(C)(C)[C@@H]2C[C@@H](OC(C)=O)[C@]3(C)[C@H](CC[C@@]4(C)[C@@H](c5ccoc5)OC(=O)[C@H]5O[C@@]534)[C@@]12C [3-Deacetylkhivorin]	102	6	–
CC(=O)O[C@@H]1CC2C(C)(C)[C@H](O)CC[C@]2(C)C2CC[C@@]3(C)[C@H](c4ccoc4)OC(=O)C4OC43[C@@]21C (stereo partly drawn) [3alpha-Hydroxydeoxodihydrogedunin]	94	85	–
CC(=O)O[C@H]1CC[C@]2(C)[C@H]3CC[C@@]4(C)[C@H](c5ccoc5)OC(=O)[C@H]5O[C@]54[C@]3(C)[C@H](OC(C)=O)C[C@H]2C1(C)C [3beta-Acetoxydeoxodihydrogedunin]	80	90	–
CC(=O)OC1CC2C(C)(C)[C@@H](O)CC[C@]2(C)C2CC[C@]3(C)[C@H](c4ccoc4)OC(=O)[C@H]4O[C@]43[C@]12C (stereo partly drawn) [3beta-Hydroxydeoxodihydrogedunin]	79	75	–
C=C1C2CC[C@@]3(C)[C@H](c4ccoc4)OC(=O)C[C@]13O[C@H]1CC(=O)C(C)(C)[C@H](C(OC(C)=O)C(=O)OC)[C@@]21C (stereo partly shown) [6-Acetoxyangolensic acid methyl ester]	88	32	–
CC(=O)O[C@H]1C[C@@H](OC(C)=O)C(C)(C)C2CC(=O)[C@]3(C)C(CC[C@@]4(C)[C@H](c5ccoc5)OC(=O)[C@H]5O[C@]543)[C@]21C (stereo partly shown) [7-Deacetoxy-7-oxokhivorin]	90	26	–
CC(=O)O[C@H]1C[C@@H](OC(C)=O)C(C)(C)C2C[C@@H](O)[C@]3(C)C(CC[C@@]4(C)[C@H](c5ccoc5)OC(=O)[C@H]5O[C@]543)[C@]21C (stereo partly shown) [7-Deacetylkhivorin]	91	13	–
CC1(C)C(=O)C=C[C@]2(C)[C@H]3CC[C@@]4(C)[C@H](c5ccoc5)OC(=O)[C@H]5O[C@]54[C@]3(C)C=C[C@@H]12 [7-Desacetoxy-6,7-dehydrogedunin]	70	2	–
CC(=O)OC1CC(OC(C)=O)C2(C)C(CC(OC(C)=O)C3(C)C2CCC2(C)C(c4ccoc4)OC(=O)C4OC423)C1(C)C (stereo not shown) [7-Epikhivorin]	79	4	–
C=C1[C@@H]([C@@]2(C)C=CC(=O)C(C)(C)[C@@H]2CC(=O)OC)CC[C@@]2(C)[C@H](c3ccoc3)OC(=O)[C@H]3O[C@]132 [Andirobin]	–	–	% cell viability (VeroVP30 cells; green monkey): 91%; inhibition at 5 µM (EbolaΔVP30-GFP virus): -12%
C=C1[C@@H]2CC[C@@]3(C)[C@H](c4ccoc4)OC(=O)C[C@]13O[C@H]1CC(=O)C(C)(C)[C@H](CC(=O)OC)[C@]12C [Angolensic acid, methyl ester]	85	4	–
CC1(C)C=CC(=O)[C@@]2(C)C1CC(=O)[C@]1(C)C2CC[C@@]2(C)[C@H](c3ccoc3)OC(=O)C3OC321 (stereo partly shown) [Deacetoxy-7-oxisogedunin]	84	41	–
CC1(C)C(=O)C=C[C@]2(C)[C@H]3CC[C@@]4(C)[C@H](c5ccoc5)OC(=O)[C@H]5O[C@]54[C@]3(C)C(=O)C[C@@H]12 [Deacetoxy-7-oxogedunin]	79	80	–
CC1(C)C(=O)C=C[C@]2(C)[C@H]3CC[C@@]4(C)[C@H](c5ccoc5)OC(=O)[C@H]5O[C@]54[C@]3(C)[C@H](O)C[C@@H]12 [Deacetylgedunin]	–	–	% cell viability (VeroVP30 cells; green monkey): 86%; anti-Ebolavirus activity (EbolaΔVP30-GFP virus): did not show any anti-Ebolavirus activity; inhibition at 5 µM (EbolaΔVP30-GFP virus): 45%
CC(=O)O[C@@H]1C[C@H]2C(C)(C)C(=O)CC[C@]2(C)[C@H]2CC[C@@]3(C)[C@H](c4ccoc4)OC(=O)[C@H]4O[C@]43[C@@]21C [Dihydrogedunin]	–	–	% cell viability (VeroVP30 cells; green monkey): 79%; inhibition at 5 µM (EbolaΔVP30-GFP virus): 96%
CCC(C)C(=O)O[C@@H]1C[C@@]2(C)[C@H](c3ccoc3)OC(=O)CC23OC2(C)OC34[C@H](OC(=O)C(C)C)[C@@]3(O)[C@@H](OC(=O)C5(C)OC5C)[C@@]5(C)C[C@]3(O)[C@@](C)([C@H]5CC(=O)OC)C14O2 (stereo partly shown) [Entandrophragmin]	83	−12	–
